Results as given in patent US11407768B2, “AMPK activators” (Kallyope, Inc., priority 2020, dated 2022).

Tests used:
[1] = tested on: Acute Dextran Sulfate Sodium (DSS) Colitis Model; experiment: Intestinal barrier function in mouse acute DSS colitis model (FITC-dextran); format: in vivo, C57B1/6 mice; conditions: 30 mg/kg QD oral; 3% DSS 7 days; serum FITC-dextran
Procedure: Compounds were formulated in vehicle (0.25% methyl cellulose, 5% Tween 80, 0.02% sodium dodecyl sulfate (SDS) in Hanks' Buffered Salt Solution with Ca^2+ and Mg^2+). Vehicle or compound was administered once daily by oral gavage to C57B1/6 mice. After 3 days of pre-dosing, dextran sulfate sodium (DSS) was simultaneously administered at 3% in drinking water, and appropriate water-only controls were included.
After 7 days of DSS administration, animals treated were switched back to their regular water source and administered a single oral bolus dose of FITC-dextran (FD) four hours prior to necropsy. The animals were sacrificed by cardiac puncture and serum was collected. The concentration of […] present in serum was determined by measuring fluorescence intensity on a standard plate reader, and fitting values back to a standard curve.

[2] = tested on: blood glucose levels; experiment: Intraperitoneal (IP) glucose tolerance test in mice; format: in vivo; conditions: for % Change in Average Total AUC (0-90 min) vs. Vehicle: blood glucose, glucose 2 g/kg IP
Text: Systemic AMPK target engagement in vivo can be assessed by measuring the glucose levels in blood following administration of compounds, whereby AMPK activation in skeletal muscle leads in a decrease in overall blood glucose levels.
Compounds were formulated in vehicle (0.25% methyl cellulose, 5% Tween 80, 0.02% sodium dodecyl sulfate (SDS) in Hanks' Buffered Salt Solution with Ca^2+ and Mg^2). Immediately prior to compound dosing, the tip of the tail was removed with scissors and a drop of blood was collected onto a glucometer strip (Bayer Contour Next) for a −1 hour blood glucose measure. The mice were then immediately administered vehicle or compound at 10 mL/kg PO. Approximately one hour later, mice were tail bled for a 0 min blood glucose reading, and then immediately after were administered D(+) glucose (2 g/kg, made up in saline) at 5 mL/kg IP. Tail bleeds were then performed on all mice at 20 min, 40 min, 60 min, and 90 min post D(+) glucose administration for blood glucose measures. Area under the curves (AUCs) for blood glucose measures were then calculated for each treatment from 0-90 mins.

[3] = Pharmacokinetics (oral bioavailability) in C57BL/6 mice; conditions: mouse, in vivo
Procedure: Selected compounds were tested for pharmacokinetics in C57BL/6 mice. Compounds 1, 4, 31, 32, 40, 55, 57 and 60 were dosed IV at 1 mg/kg as a formulation of 0.2 mg/mL in 5% DMSO+30% PEG400+65% water and were dosed PO at 30 mg/kg as a formulation of 3 mg/mL in 0.25% MC+5% Tween 80+0.02% SDS. Compound 2 was dosed IV at 1 mg/kg as a formulation of 0.2 mg/mL in 5% ethanol +95% saline and was dosed PO at 30 mg/kg as a formulation of 3 mg/mL in 0.25% MC+5% Tween 80+0.02% SDS.

[4] = tested on: Chemotherapy-induced Intestinal Injury Model; experiment: Diarrhea in mouse chemotherapy-induced (5FU) intestinal injury model; format: in vivo, BALB/c mice; conditions: 5FU 400 mg/kg IP; for Diarrhea Score Day 5 / Diarrhea Score Day 6: score 0-3
Procedure: Compounds were formulated in vehicle (0.25% methyl cellulose, 5% Tween 80, 0.02% sodium dodecyl sulfate (SDS) in Hanks' Buffered Salt Solution with Ca' and Mg'). On day 1, either saline or a 400 mg/kg dose of 5-fluorouracil (5FU) in saline was administered by intraperitoneal injection to BALB/c mice. Starting on day 2, vehicle or compound was administered twice a day by oral gavage. From days 5 to 6 post-5FU, the animals were scored for diarrhea severity once a day. The diarrhea was scored 0-3 as follows: 0—normal consistency (black and solid), 1—soft (black and a bit lighter/yellow), 2—loosely shaped stool (yellowish and somewhat watery), 3—extreme diarrhea (very watery).

[5] = target: Recombinant AMPK α1/β1/γ1 complex (Homo sapiens (Human), UniProt Q13131+Q9Y478); experiment: In vitro pAMPK1 kinase activation assay (ADP-Glo, SAMS peptide); format: biochemical; conditions: AMPK α1/β1/γ1 pre-activated with CAMKK2; 12-point curve; 15 min compound incubation
In short: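 Activation read as ADP formation (ADP-Glo) from SAMS peptide phosphorylation, after a 15-minute compound pre-incubation with the complex pre-phosphorylated by CAMKK2. EC50 derived from 12-point curves interpolated against an ATP:ADP standard curve.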

[6] = tested on: Caco-2 cells; experiment: in vitro; conditions: Caco-2
Procedure: (§1) Caco-2 cells purchased from ATCC were seeded onto […] (PET) in 96-well BD Insert plates at 1×10^5 cells/cm^2, and refreshed medium every 4-5 days until to the 21st to 28th day for confluent cell monolayer formation. The transport buffer in the study was HBSS with 10 mM HEPES at pH 7.40±0.05. Test compounds were tested at 2 μM bi-directionally in duplicate. Digoxin was tested at 10 μM bi-directionally in duplicate, while nadolol and metoprolol were tested at 2 μM in A to B direction in duplicate. Final DMSO concentration was adjusted to less than 1%.
(§2) The plate was incubated for 2 hours in CO2 incubator at 37±1° C., with 5% CO2 at saturated humidity without shaking. All samples were mixed with acetonitrile containing internal standard and were centrifuged at 4000 rpm for 10 min. Subsequently, 100 μL supernatant solution was diluted with 100 μL distilled water for LC/MS/MS analysis. Concentrations of test and control compounds in starting solution, donor solution, and receiver solution were quantified by LC/MS/MS, using peak area ratio of analyte/internal standard.

[7] = in vitro; conditions: human
Procedure: as §1, §2

Chain of Recombinant AMPK α1/β1/γ1 complex (Q13131 whole entry): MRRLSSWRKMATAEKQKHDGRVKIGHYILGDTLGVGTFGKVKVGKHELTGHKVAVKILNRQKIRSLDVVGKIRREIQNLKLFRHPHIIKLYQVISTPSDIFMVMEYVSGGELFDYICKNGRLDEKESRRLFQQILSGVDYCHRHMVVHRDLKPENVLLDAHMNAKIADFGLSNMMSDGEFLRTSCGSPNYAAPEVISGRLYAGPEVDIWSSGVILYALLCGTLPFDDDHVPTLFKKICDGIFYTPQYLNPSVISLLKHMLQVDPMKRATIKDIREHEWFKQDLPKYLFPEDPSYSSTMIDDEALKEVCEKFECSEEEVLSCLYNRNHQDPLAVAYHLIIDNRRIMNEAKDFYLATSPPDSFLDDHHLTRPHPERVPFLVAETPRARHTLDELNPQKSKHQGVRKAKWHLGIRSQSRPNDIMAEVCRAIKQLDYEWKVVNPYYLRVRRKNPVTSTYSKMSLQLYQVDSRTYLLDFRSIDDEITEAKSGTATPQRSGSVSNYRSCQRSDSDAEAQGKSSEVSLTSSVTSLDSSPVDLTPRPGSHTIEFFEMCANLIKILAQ
Chain of Recombinant AMPK α1/β1/γ1 complex (Q9Y478 whole entry): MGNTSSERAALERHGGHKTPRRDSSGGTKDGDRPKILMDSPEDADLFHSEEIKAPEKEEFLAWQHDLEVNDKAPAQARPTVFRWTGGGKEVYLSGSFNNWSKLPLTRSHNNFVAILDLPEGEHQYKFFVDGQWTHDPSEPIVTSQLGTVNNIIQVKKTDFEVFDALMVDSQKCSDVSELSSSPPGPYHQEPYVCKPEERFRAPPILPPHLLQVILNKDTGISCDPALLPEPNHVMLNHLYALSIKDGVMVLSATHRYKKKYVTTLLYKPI
Chain of Recombinant AMPK α1/β1/γ1 complex (P54619 whole entry partner): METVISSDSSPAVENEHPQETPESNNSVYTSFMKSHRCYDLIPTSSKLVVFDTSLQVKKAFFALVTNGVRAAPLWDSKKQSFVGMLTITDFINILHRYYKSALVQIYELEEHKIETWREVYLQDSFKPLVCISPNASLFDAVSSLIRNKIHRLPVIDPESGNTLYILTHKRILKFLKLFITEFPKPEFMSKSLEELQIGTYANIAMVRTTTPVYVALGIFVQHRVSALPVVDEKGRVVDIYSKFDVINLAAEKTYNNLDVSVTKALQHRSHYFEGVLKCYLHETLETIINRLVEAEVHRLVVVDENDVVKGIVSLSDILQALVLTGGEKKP

half-life [3]: 1.4 h | bioavailability ([3]; IV 1 mg/kg, PO 30 mg/kg): < 1% | Vd ([3]; following IV administration, 1 mg/kg, read-out: volume of distribution): < 1 L/kg | EC50 [5]: 0.1 nM | permeability (in words) [6]: low permeability | Papp A→B at 2 h, 2 μM ([7]; Caco-2, pH 7.4): < 0.48 ×10⁻⁶ cm/s | Papp B→A at 2 h, 2 μM ([7]; Caco-2, pH 7.4): 0.71 ×10⁻⁶ cm/s | efflux ratio at 2 h, 2 μM ([7]; Caco-2, pH 7.4, Efflux Ratio): > 1.48 | recovery at 2 h, 2 μM ([7]; Caco-2, pH 7.4, Mean Recovery A to B): < 99.6% | recovery at 2 h, 2 μM ([7]; Caco-2, pH 7.4, Mean Recovery B to A): 102%
SMILES: OC[C@@H](O)[C@@H](O)[C@H](O)[C@@H](O)CNCc1ccc(-c2ccc(-c3nc4nc(O[C@@H]5CO[C@H]6[C@@H]5OC[C@H]6O)[nH]c4cc3Cl)cc2)cc1 [Compound 4, (2R,3R,4R,5S)-6-(((4′-(6-chloro-2-(((3R,3aR,6R,6aR)-6-hydroxyhexahydrofuro[3,2-b]furan-3-yl)oxy)-1H-imidazo[4,5-b]pyridin-5-yl)-[1,1′-biphenyl]-4-yl)methyl)amino)hexane-1,2,3,4,5-pentaol]
Change in Fluorescence Intensity vs. Vehicle [1]: −43% | % Change in Average Total AUC (0-90 min) vs. Vehicle ([2]; 30 mpk PO): −0.9% | change in blood glucose AUC vs. vehicle / systemic AMPK activation (in words) ([2]; 30 mpk for all compounds, up to 100 mpk for Compound 4): do not lead to activation of AMPK in skeletal muscle | % Change in Average Total AUC (0-90 min) vs. Vehicle ([2]; 100 mpk PO): +2.3% | Diarrhea Score Day 5, % Change vs. Vehicle ([4]; 3 mpk BID oral): −16% | Diarrhea Score Day 6, % Change vs. Vehicle ([4]; 3 mpk BID oral): −44% | Diarrhea Score Day 5 ([4]; 3 mpk BID oral): 0.75 | Diarrhea Score Day 6 ([4]; 3 mpk BID oral): 1.00 | Diarrhea Score Day 5, % Change vs. Vehicle ([4]; 10 mpk BID oral): −72% | Diarrhea Score Day 6, % Change vs. Vehicle ([4]; 10 mpk BID oral): −79% | Diarrhea Score Day 5 ([4]; 10 mpk BID oral): 0.25 | Diarrhea Score Day 6 ([4]; 10 mpk BID oral): 0.38
